Source: patent US20100099634A1, “MACROLIDE COMPOUNDS ENDOWED WITH ANTIINFLAMMATORY ACTIVITY” (Zambon S.p.A, priority 2006, published 2010)

Experiments:
[1] = system: oedema in mouse ear induced with PMA (phorbol myristate acetate); assay: Acute contact dermatitis: TPA-induced ear oedema in mice; assay type: in vivo; conditions: CD1 mice, 500 μg/ear topical in TPDS 30 minutes before 0.01% TPA, ear weight six hours later, vs TPA alone
Experimental: The antiinflammatory activity was evaluated by means of inhibition of the oedema in mouse ear induced with PMA (phorbol myristate acetate). A) Acute Contact Dermatitis Groups of 5 CD1 mice (18-24 g) were used. All the macrolide derivatives were dissolved in Trans-phase Delivery System (TPDS), a carrier containing 10% benzyl alcohol, 40% acetone and 50% isopropanol. 15 microlitres of the compounds (500 μg/ear), dissolved in TPDS, were applied topically to the inner surface of an ear; 30 minutes later, 12 microlitres of a solution of tetradecanoylphorbol acetate (TPA) at a concentration of 0.01% dissolved in acetone were applied to the same area. Six hours later, the animals were sacrificed by inhalation of CO2. The degree of oedema was calculated by subtracting the weight of a specified section of the untreated ear from that of the contralateral treated ear. To determine the degree of remission of the oedema, the weight difference of the groups treated with TPA+macrolides was then compared with the groups treated with TPA alone. The activity of the macrolides was measured by using the modified method of Zunic et al. (1998): MDL (Lysyl) GDP, a non-toxic muramyl dipeptide derivative inhibits cytokine production by activated macrophages and protects mice from phorbol ester- and oxazolone-induced inflammation (J. Invest. Dermatol., 111(1), 77-82).

[2] = system: Escherichia coli (ATCC 25922); assay: Antibiotic activity by turbidimetric assay of bacterial growth; assay type: cell-based; conditions: for IC20: concentration that inhibits growth of E. coli ATCC 25922 by 20%; for IC20 / IC50 / IC80: maximum test concentration 100 μM, mean of at least three incubation times; for IC50: concentration that inhibits growth of E. coli ATCC 25922 by 50%; for IC80: concentration that inhibits growth of E. coli ATCC 25922 by 80%; for activity towards bacterial growth (in words): turbidimetric assay, strains sensitive to erythromycin and telithromycin

In the case of `CC[C@H]1OC(=O)[C@H](C)[C@@H](O[C@H]2C[C@@](C)(OC)[C@@H](O)[C@H](C)O2)[C@H](C)[C@@H](O[C@@H]2O[C@H](C)C[C@H](N(C)C)[C@H]2O)[C@](C)(O)C[C@@H](C)CN(C)[C@H](C)[C@@H](O)[C@]1(C)O` [Azithromycin], the “Oedema (% inhibition)” value [1] is reported as 40%.

For `CC[C@H]1OC(=O)[C@H](C)[C@@H](O[C@H]2C[C@@](C)(OC)[C@@H](O)[C@H](C)O2)[C@H](C)[C@@H](O[C@@H]2O[C@H](C)C[C@H](N(C)C)[C@H]2O)[C@](C)(O)C[C@@H](C)C(=O)[C@H](C)[C@@H](O)[C@]1(C)O` [Erythromycin], the IC20 ([2]; Escherichia coli, ATCC25922) was 3 µM, the IC50 ([2]; Escherichia coli, ATCC25922) was 7.8 µM and the IC80 ([2]; Escherichia coli, ATCC25922) was 24.3 µM. The “activity towards bacterial growth (in words)” value [2] was “substantial inhibition of the bacterial development” and the “Oedema (% inhibition)” value [1] was 42%.

`CCC1OC(=O)C(C)C(=O)C(C)C(OC2OC(C)CC(N(C)C(C)=O)C2O)C(C)(OC)CC(C)C(=O)C(C)C2N(CCCCn3cnc(-c4cccnc4)c3)C(=O)OC12C` (stereo not shown) [Compound 1, 3′-demethyl-3′-acetyltelithromycin] gave an IC20 [2] of over 100 µM, an IC50 [2] of over 100 µM and an IC80 [2] of over 100 µM. For the same compound, the “Oedema (% inhibition)” value [1] was 81.7%.

In the case of `CC[C@H]1OC(=O)[C@H](C)C(=O)[C@H](C)[C@@H](O[C@@H]2O[C@H](C)C[C@H](N(C)C(=O)c3ccccc3)[C@H]2O)[C@](C)(OC)C[C@@H](C)C(=O)[C@H](C)[C@H]2N(CCCCn3cnc(-c4cccnc4)c3)C(=O)O[C@]12C` [Compound 2, 3′-demethyl-3′-benzoyltelithromycin], the IC20 [2] is reported as over 100 µM, the IC50 [2] is reported as over 100 µM and the IC80 [2] is reported as over 100 µM. For the same compound, the “Oedema (% inhibition)” value [1] was 81.8%.

In the case of `CC[C@H]1OC(=O)[C@H](C)C(=O)[C@H](C)[C@@H](O[C@@H]2O[C@H](C)C[C@H](N(C)C)[C@H]2O)[C@](C)(OC)C[C@@H](C)C(=O)[C@H](C)[C@H]2N(CCCCn3cnc(-c4cccnc4)c3)C(=O)O[C@]12C` [Telithromycin], the IC20 ([2]; Escherichia coli, ATCC25922) is reported as 2.7 µM, the IC50 ([2]; Escherichia coli, ATCC25922) is reported as 5.7 µM and the IC80 ([2]; Escherichia coli, ATCC25922) is reported as 14.9 µM. For the same compound, the “activity towards bacterial growth (in words)” value [2] was “substantial inhibition of the bacterial development” and the “Oedema (% inhibition)” value [1] was 79.7%.
